The values below come from patent US20100003250A1, “(2-ARYL-7H-PYRROLO[2,3-D]PYRIMIDIN-4-YL)MORPHOLINE COMPOUNDS, THEIR USE AS MTOR KINASE AND PI3 KINASE INHIBITORS, AND THEIR SYNTHESES” (Wyeth, priority 2008, published 2010).

Where two headings read alike, the source gives them in different places.

The subject of test [1] is human tumor xenograft models. The settings on record: cited from earlier work.
The next test deals with T1, mTOR Kinase (FLAG-TOR) (Homo sapiens, UniProt P42345).
T1 construct: FLAG
As to the kind of experiment: mTOR kinase assay, purified enzyme, DELFIA format. The format is biochemical. The settings on record: 100 μM ATP, 1.25 μM His6-S6K; read-out: mTOR Kinase Median IC50.

A further test addresses PI3Kα (Homo sapiens, UniProt P42336). The test is described as follows: PI3K-alpha fluorescence polarization assay. The settings on record: 20 μM PIP2, 25 μM ATP; read-out: PI3Kα Median IC50. The format is biochemical. (Fluorescence polarisation rises when a labelled molecule tumbles more slowly, as on binding a larger partner.)
The target in another test is PI3Kγ (Homo sapiens, UniProt P48736). As to the kind of experiment: PI3K-gamma fluorescence polarization assay. The class given is biochemical. The settings on record: 20 μM PIP2, 25 μM ATP; read-out: PI3Kγ Median IC50. The procedure, abridged: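 Enzyme preincubated with compound in 20 mM HEPES pH 7.5, 2 mM MgCl2, 0.05% CHAPS, 0.01% βME; reaction started with substrate giving 20 μM diC8 PIP2 and 25 μM ATP final, run 30-60 min at room temperature. Stopped with TAMRA-labelled PIP3 detector probe plus GST-GRP; PIP3 formation read by fluorescence polarization after 90-110 min.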
Chain of PI3Kγ (P48736 whole entry, species assumed): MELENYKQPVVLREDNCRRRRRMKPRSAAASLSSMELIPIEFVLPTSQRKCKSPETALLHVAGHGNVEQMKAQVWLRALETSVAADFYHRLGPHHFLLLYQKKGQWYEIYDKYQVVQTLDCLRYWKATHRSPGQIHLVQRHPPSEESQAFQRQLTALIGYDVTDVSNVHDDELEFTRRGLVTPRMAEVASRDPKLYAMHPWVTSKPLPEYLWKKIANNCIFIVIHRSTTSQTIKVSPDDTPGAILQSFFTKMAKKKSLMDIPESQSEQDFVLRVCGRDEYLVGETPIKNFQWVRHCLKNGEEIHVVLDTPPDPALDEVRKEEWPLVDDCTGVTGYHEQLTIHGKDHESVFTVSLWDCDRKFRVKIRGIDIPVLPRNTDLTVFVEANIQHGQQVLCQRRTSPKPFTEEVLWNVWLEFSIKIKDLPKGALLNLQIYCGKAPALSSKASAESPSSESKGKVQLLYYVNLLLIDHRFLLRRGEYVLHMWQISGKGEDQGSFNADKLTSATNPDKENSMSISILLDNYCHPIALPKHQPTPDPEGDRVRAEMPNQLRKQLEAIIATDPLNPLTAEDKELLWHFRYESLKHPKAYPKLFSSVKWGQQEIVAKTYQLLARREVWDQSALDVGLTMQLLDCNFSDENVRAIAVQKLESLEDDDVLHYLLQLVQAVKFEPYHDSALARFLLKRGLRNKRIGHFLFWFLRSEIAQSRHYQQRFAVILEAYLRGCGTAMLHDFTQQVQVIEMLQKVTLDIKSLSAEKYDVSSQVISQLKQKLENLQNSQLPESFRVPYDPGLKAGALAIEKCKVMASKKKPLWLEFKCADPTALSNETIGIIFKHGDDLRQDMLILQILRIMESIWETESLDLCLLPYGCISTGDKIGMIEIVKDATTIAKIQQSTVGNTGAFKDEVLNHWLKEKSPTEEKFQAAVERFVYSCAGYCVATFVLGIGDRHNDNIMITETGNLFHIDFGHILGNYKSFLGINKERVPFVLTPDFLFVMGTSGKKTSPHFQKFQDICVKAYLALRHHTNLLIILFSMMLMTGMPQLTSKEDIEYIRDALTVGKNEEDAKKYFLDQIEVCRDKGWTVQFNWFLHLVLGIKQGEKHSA

The target in the next test is mTOR (Homo sapiens, UniProt P42345). The settings on record: read-out: mTOR IC50; mTOR complexes / mTOR enzymes; cited from earlier work.

What is called IC50 is the point on the concentration scale where inhibition reaches its midpoint.

Chain of PI3Kα (P42336 whole entry, species assumed): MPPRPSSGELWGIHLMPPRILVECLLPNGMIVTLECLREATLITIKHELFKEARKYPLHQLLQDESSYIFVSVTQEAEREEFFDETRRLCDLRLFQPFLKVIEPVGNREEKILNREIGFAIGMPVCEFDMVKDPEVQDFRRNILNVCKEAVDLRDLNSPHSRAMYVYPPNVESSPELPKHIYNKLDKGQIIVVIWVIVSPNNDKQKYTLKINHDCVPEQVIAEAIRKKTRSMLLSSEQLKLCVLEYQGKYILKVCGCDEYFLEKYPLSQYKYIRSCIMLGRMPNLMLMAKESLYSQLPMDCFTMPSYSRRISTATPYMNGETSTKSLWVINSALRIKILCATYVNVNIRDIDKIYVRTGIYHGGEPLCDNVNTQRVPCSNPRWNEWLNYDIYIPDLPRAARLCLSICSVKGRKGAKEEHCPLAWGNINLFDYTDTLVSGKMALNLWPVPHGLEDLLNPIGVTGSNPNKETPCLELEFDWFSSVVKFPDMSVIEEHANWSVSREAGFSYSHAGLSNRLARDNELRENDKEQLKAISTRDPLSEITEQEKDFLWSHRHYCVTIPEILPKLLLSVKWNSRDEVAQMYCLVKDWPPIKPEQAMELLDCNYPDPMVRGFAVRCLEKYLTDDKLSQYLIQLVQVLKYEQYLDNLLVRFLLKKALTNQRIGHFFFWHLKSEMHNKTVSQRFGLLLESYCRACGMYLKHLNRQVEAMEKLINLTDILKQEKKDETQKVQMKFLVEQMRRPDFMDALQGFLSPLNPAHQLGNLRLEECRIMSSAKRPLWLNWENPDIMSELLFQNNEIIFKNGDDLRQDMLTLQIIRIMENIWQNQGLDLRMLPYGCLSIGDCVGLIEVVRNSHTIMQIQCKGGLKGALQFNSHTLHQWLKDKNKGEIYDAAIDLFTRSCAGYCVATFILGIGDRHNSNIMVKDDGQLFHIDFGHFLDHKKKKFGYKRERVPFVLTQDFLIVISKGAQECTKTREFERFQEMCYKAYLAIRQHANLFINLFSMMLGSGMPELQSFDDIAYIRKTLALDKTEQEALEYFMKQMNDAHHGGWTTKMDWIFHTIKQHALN
Chain of PI3Kα (P27986 whole entry partner, species assumed): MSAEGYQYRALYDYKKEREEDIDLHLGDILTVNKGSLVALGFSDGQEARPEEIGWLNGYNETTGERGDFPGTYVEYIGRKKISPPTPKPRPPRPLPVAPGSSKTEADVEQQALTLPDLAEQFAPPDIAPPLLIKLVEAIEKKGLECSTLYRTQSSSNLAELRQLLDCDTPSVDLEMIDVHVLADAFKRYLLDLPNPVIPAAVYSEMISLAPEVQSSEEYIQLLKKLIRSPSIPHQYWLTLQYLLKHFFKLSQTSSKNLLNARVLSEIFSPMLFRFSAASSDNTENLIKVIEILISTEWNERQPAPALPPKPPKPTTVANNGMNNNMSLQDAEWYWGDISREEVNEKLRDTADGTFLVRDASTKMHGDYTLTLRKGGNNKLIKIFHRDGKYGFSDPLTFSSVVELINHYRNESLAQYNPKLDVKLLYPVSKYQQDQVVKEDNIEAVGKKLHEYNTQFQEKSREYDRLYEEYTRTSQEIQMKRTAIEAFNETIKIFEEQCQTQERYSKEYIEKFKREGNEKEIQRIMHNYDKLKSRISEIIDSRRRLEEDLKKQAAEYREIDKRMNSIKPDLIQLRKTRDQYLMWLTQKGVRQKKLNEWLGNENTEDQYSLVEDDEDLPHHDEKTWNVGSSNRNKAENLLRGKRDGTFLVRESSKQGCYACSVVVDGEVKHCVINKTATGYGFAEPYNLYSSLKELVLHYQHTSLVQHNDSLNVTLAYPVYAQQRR

Consider `Oc1cccc(-c2nc(N3CCOCC3)c3oc4ncccc4c3n2)c1` [PI103, 3-(4-(4-morpholinyl)pyrido[3′,2′:4,5]furo[3,2-d]pyrimidin-2-yl)phenol], for which the “activity in human tumor xenograft models” value in test [1] (I.P. dosing in mice, U87MG, PC3, MDA-MB-468, MDA-MB-435, HCT 116, SKOV3, IGROV-1) was “demonstrated activity”.

`Cn1c(=O)n(-c2ccc(C(C)(C)C#N)cc2)c2c3cc(-c4cnc5ccccc5c4)ccc3ncc21` [NVP-BEZ-235, 2-methyl-2-(4-(3-methyl-2-oxo-8-(quinolin-3-yl)-2,3-dihydro-1H-imidazo[4,5-c]quinolin-1-yl)phenyl)propanenitrile]: in test [1] (prostrate (PC-3) and glioblastoma (U-87)), the “activity in human tumor xenograft models” value is listed as “demonstrated activity”.

On to `CNCCN(C)C(=O)c1ccc(NC(=O)Nc2ccc(-c3nc(N4CCOCC4)c4ccn(CC(F)(F)F)c4n3)cc2)cc1` [Compound 53, N-methyl-N-[2-(methylamino)ethyl]-4-[({4-[4-morpholin-4-yl-7-(2,2,2-trifluoroethyl)-7H-pyrrolo[2,3-d]pyrimidin-2-yl]phenyl}carbamoyl)amino]benzamide], for which the IC50 on mTOR Kinase (FLAG-TOR) was 0.57 nM; on PI3Kα, < 2.1 nM; on PI3Kγ, 16 nM.

`CCN1CCN(C(=O)c2ccc(NC(=O)Nc3ccc(-c4nc(N5CCOCC5)c5ccn(CC)c5n4)cc3)cc2)CC1` [Compound 70, 1-[4-(7-ethyl-4-morpholin-4-yl-7H-pyrrolo[2,3-d]pyrimidin-2-yl)phenyl]-3-{4-[(4-ethylpiperazin-1-yl)carbonyl]phenyl}urea]: the half-inhibitory concentration (IC50) worked out at 1.5 nM at mTOR Kinase (FLAG-TOR), 2.5 nM at PI3Kα and 21 nM at PI3Kγ.

As for `O=C(NCCO)Nc1ccc(-c2nc(N3CCOCC3)c3ccn(CC(F)(F)F)c3n2)cc1` [Compound 42, 1-(2-hydroxyethyl)-3-{4-[4-morpholin-4-yl-7-(2,2,2-trifluoroethyl)-7H-pyrrolo[2,3-d]pyrimidin-2-yl]phenyl}urea], the half-maximal inhibitory concentration (IC50) at mTOR Kinase (FLAG-TOR) stood at 0.94 nM; at PI3Kα, 110 nM; at PI3Kγ, 390 nM.

For `CC(C)(C)OC(=O)N1CCC(n2ccc3c(N4CCOCC4)nc(-c4ccc(NC(=O)Nc5cccnc5)cc4)nc32)CC1` [Compound 94, tert-butyl 4-(4-morpholin-4-yl-2-{4-[(pyridin-3-ylcarbamoyl)amino]phenyl}-7H-pyrrolo[2,3-d]pyrimidin-7-yl)piperidine-1-carboxylate], the IC50 on mTOR Kinase (FLAG-TOR) was 1350 nM; at PI3Kα it was 11000 nM; at PI3Kγ it was > 10000 nM.

On to `CCn1ccc2c(N3CCOCC3)nc(-c3ccc(NC(=O)NC)cc3)nc21` [Compound 96, 1-[4-(7-ethyl-4-morpholin-4-yl-7H-pyrrolo[2,3-d]pyrimidin-2-yl)phenyl]-3-methylurea], for which the IC50 is 4.9 nM on mTOR Kinase (FLAG-TOR), 140 nM on PI3Kα and 1540 nM on PI3Kγ.

For the compound `CN(C)CCn1cc(C(=O)Nc2cccnc2)c2c(N3CCOCC3)nc(-c3ccc(NC(=O)Nc4cccnc4)cc3)nc21` [Compound 10, 7-[2-(dimethylamino)ethyl]-4-morpholin-4-yl-N-pyridin-3-yl-2-{4-[(pyridin-3-ylcarbamoyl)amino]phenyl}-7H-pyrrolo[2,3-d]pyrimidine-5-carboxamide], the half-maximal inhibitory concentration (IC50) at mTOR Kinase (FLAG-TOR) came to 0.88 nM; at PI3Kα it was 16 nM; on PI3Kγ, 72 nM.

As for `O=C(Nc1ccncc1)Nc1ccc(-c2nc(N3CCOCC3)c3ccn(CC4NC(=O)NC4=O)c3n2)cc1` (stereo not shown) [Compound 35, 1-(4-{7-[(2,5-dioxoimidazolidin-4-yl)methyl]-4-morpholin-4-yl-7H-pyrrolo[2,3-d]pyrimidin-2-yl}phenyl)-3-pyridin-4-ylurea], the half-maximal inhibitory concentration (IC50) at mTOR Kinase (FLAG-TOR) came out at 1.55 nM; on PI3Kα, 12 nM; at PI3Kγ it was 100 nM.

On to `CC(C)n1ccc2c(N3CCOCC3)nc(-c3ccc(NC(=O)Nc4ccc(C(=O)NCCN5CCCC5)cc4)cc3)nc21` [Compound 87, 4-({[4-(7-isopropyl-4-morpholin-4-yl-7H-pyrrolo[2,3-d]pyrimidin-2-yl)phenyl]carbamoyl}amino)-N-(2-pyrrolidin-1-ylethyl)benzamide], for which the IC50 at mTOR Kinase (FLAG-TOR) was 0.55 nM; on PI3Kα, 5 nM; at PI3Kγ, 88 nM.

On to `CCn1ccc2c(N3CCOCC3)nc(-c3ccc(NC(=O)Nc4ccc(C(=O)N5CCN(C6CCCC6)CC5)cc4)cc3)nc21` [Compound 73, 1-{4-[(4-cyclopentylpiperazin-1-yl)carbonyl]phenyl}-3-[4-(7-ethyl-4-morpholin-4-yl-7H-pyrrolo[2,3-d]pyrimidin-2-yl)phenyl]urea], for which the figures for the IC50 on mTOR Kinase (FLAG-TOR), on PI3Kα and at PI3Kγ were 3.35 nM, 6.5 nM and 35 nM, respectively.

With `O=C(Nc1ccc(CO)cc1)Nc1ccc(-c2nc(N3CCOCC3)c3ccn(CC(F)(F)F)c3n2)cc1` [Compound 40, 1-[4-(hydroxymethyl)phenyl]-3-{4-[4-morpholin-4-yl-7-(2,2,2-trifluoroethyl)-7H-pyrrolo[2,3-d]pyrimidin-2-yl]phenyl}urea], the IC50 on mTOR Kinase (FLAG-TOR) worked out at 1.09 nM; at PI3Kα, 12 nM; on PI3Kγ, 80 nM.

Regarding `CCn1ccc2c(N3CCOCC3)nc(-c3ccc(NC(=O)Nc4ccc(C(=O)N5CCOCC5)cc4)cc3)nc21` [Compound 66, 1-[4-(7-ethyl-4-morpholin-4-yl-7H-pyrrolo[2,3-d]pyrimidin-2-yl)phenyl]-3-[4-(morpholin-4-ylcarbonyl)phenyl]urea], the half-inhibitory concentration (IC50) stood at 2.4 nM on mTOR Kinase (FLAG-TOR), 3.5 nM on PI3Kα and 30 nM at PI3Kγ.

Consider `CN1CCN(C(=O)c2ccc(NC(=O)Nc3ccc(-c4nc(N5CCOCC5)c5ccn(CC(F)(F)F)c5n4)cc3)cc2)CC1` [Compound 54, 1-{4-[(4-methylpiperazin-1-yl)carbonyl]phenyl}-3-{4-[4-morpholin-4-yl-7-(2,2,2-trifluoroethyl)-7H-pyrrolo[2,3-d]pyrimidin-2-yl]phenyl}urea], for which the IC50 came out at 1.1 nM on mTOR Kinase (FLAG-TOR), 1.9 nM at PI3Kα and 16 nM at PI3Kγ.

With `CC(C)n1ccc2c(N3CCOCC3)nc(-c3ccc(NC(=O)Nc4ccc(N5CCN(C)CC5)cc4)cc3)nc21` [Compound 80, 1-[4-(7-isopropyl-4-morpholin-4-yl-7H-pyrrolo[2,3-d]pyrimidin-2-yl)phenyl]-3-[4-(4-methylpiperazin-1-yl)phenyl]urea], the figures for the IC50 at mTOR Kinase (FLAG-TOR), at PI3Kα and at PI3Kγ were 2.8 nM, 47 nM and 135 nM, respectively.

Take `CC(C)n1ccc2c(N3CCOCC3)nc(-c3ccc(NC(=O)Nc4ccc(C(=O)N5CCN(C)CC5)cc4)cc3)nc21` [Compound 82, 1-[4-(7-isopropyl-4-morpholin-4-yl-7H-pyrrolo[2,3-d]pyrimidin-2-yl)phenyl]-3-{4-[(4-methylpiperazin-1-yl)carbonyl]phenyl}urea]: the IC50 worked out at 1.5 nM on mTOR Kinase (FLAG-TOR), 3.3 nM at PI3Kα and 38 nM on PI3Kγ.

With `FC(F)c1nc2ccccc2n1-c1nc(N2CCOCC2)nc(N2CCOCC2)n1` [ZSTK474, 2-(2-difluoromethylbenzoimidazol-1-yl)-4,6-dimorpholino-1,3,5-triazine], in test [1] (chronic oral administration, 400 mg/kg, A549, PC-3, WiDr), the “tumor growth in mouse human xenograft cancer models” value is “completely inhibited growth”. In addition, the 50% inhibitory concentration (IC50) on mTOR was > 10000 nM.

With `CCn1ccc2c(N3CCOCC3)nc(-c3ccc(NC(=O)Nc4ccc(C(=O)N(C)CCN(C)C)cc4)cc3)nc21` [Compound 61, N-[2-(dimethylamino)ethyl]-4-({[4-(7-ethyl-4-morpholin-4-yl-7H-pyrrolo[2,3-d]pyrimidin-2-yl)phenyl]carbamoyl}amino)-N-methylbenzamide], the values for the IC50 at mTOR Kinase (FLAG-TOR), on PI3Kα and at PI3Kγ were 0.43 nM, < 1.9 nM and 20 nM, respectively.

Take `CCn1ccc2c(N3CCOCC3)nc(-c3ccc(NC(=O)Nc4ccc(C(=O)N5CCN(c6ccccn6)CC5)cc4)cc3)nc21` [Compound 75, 1-[4-(7-ethyl-4-morpholin-4-yl-7H-pyrrolo[2,3-d]pyrimidin-2-yl)phenyl]-3-{4-[(4-pyridin-2-ylpiperazin-1-yl)carbonyl]phenyl}urea]: the figures for the half-inhibitory concentration (IC50) on mTOR Kinase (FLAG-TOR), on PI3Kα and on PI3Kγ were 5.65 nM, 8 nM and 36 nM, respectively.

With `O=C(Nc1ccc(-c2nc(N3CCOCC3)c3ccn(CC(F)(F)F)c3n2)cc1)Nc1cccnc1` [Compound 37, 1-{4-[4-morpholin-4-yl-7-(2,2,2-trifluoroethyl)-7H-pyrrolo[2,3-d]pyrimidin-2-yl]phenyl}-3-pyridin-3-ylurea], the figures for the IC50 at mTOR Kinase (FLAG-TOR), on PI3Kα and on PI3Kγ were 1.09 nM, 26 nM and 97 nM, respectively.

On to `CCn1ccc2c(N3CCOCC3)nc(-c3ccc(NC(=O)Nc4ccc(C(=O)N5C[C@@H](C)N[C@@H](C)C5)cc4)cc3)nc21` [Compound 64, 1-(4-{[(3R,5S)-3,5-dimethylpiperazin-1-yl]carbonyl}phenyl)-3-[4-(7-ethyl-4-morpholin-4-yl-7H-pyrrolo[2,3-d]pyrimidin-2-yl)phenyl]urea], for which the IC50 was 1.8 nM on mTOR Kinase (FLAG-TOR), < 1.7 nM at PI3Kα and 13 nM on PI3Kγ.

`CCn1ccc2c(N3CCOCC3)nc(-c3ccc(NC(=O)Nc4ccc(C(=O)NCCN5CCCCC5)cc4)cc3)nc21` [Compound 68, 4-({[4-(7-ethyl-4-morpholin-4-yl-7H-pyrrolo[2,3-d]pyrimidin-2-yl)phenyl]carbamoyl}amino)-N-(2-piperidin-1-ylethyl)benzamide]: the values for the 50% inhibitory concentration (IC50) on mTOR Kinase (FLAG-TOR), on PI3Kα and on PI3Kγ were 0.91 nM, 4 nM and 61 nM, respectively.
